One data set deals with bovine brain tubulin. Nature of the data set: Tubulin polymerization assay. It counts as biochemical. Particulars: for IC50: inhibition of tubulin polymerization, tubulin at 10 μM, read-out: Tubulin assembly IC50 ± SD; for fold less active than CA-4 in tubulin assembly: versus CA-4. The protocol: The assembly of purified bovine tubulin was monitored using a kit, BK006, purchased from Cytoskeleton Inc., (Denver, Colo., USA). The assay was carried out in accordance with the manufacturer's instructions using the standard assay conditions. […] Light is scattered proportionally to the concentration of polymerized microtubules in the assay. Therefore, tubulin assembly was monitored turbidimetrically at 340 nm in a Spectramax 340 PC spectrophotometer (Molecular Devices, Sunnyvale, Calif., USA). The concentration that inhibits tubulin polymerization by 50% (IC50) was determined using area under the curve (AUC). The AUC of the untreated controls were considered as 100% polymerization. The IC50 value for each compound was computed using GraphPad Prism Software.

The test system of data set [1] is MCF-7 breast cancer cells. The data set is described as follows: MTT cell viability assay, MCF-7. It counts as cell-based, human. The note with it: Homo sapiens, MCF7, MCF-7, MTT. The protocol:
(§1) All the human tumour cell lines MCF-7, HCT-116, HL-60 and HeLa were cultured in Dulbecco's Modified Eagle's Medium (DMEM) with 10% fetal bovine serum, 2 mM L-glutamine and 100 µg/mL penicillin/streptomycin. Cells were maintained at 37° C. in 5% CO2 in a humidified incubator. All cells were sub-cultured 3 times/week by trypsinization using TrypLE Express (1×).
(§2) The quinoline compounds were evaluated for antiproliferative effect using the MTT viability assay of four cancer cell lines (MCF-7, HCT-116, HL-60 and HeLa) and normal breast cells MCF-10A to calculate the relative IC50 values for each compound. Cells were seeded in triplicate in 96-well plates at a density of 10×10^3 cells/ml in a total volume of 200 μl per well. 0.1% of DMSO was used as a vehicle control. After this time, they were treated with 2 μl test compound which had been pre-prepared as stock solutions in ethanol to furnish the concentration range of study, 1 nM to 50 μM, and re-incubated for a further 72 h. The culture medium was then removed, and the cells washed with 100 μL phosphate buffered saline (PBS) and 50 μL MTT added, to reach a final concentration of 1 mg/mL MTT added. Cells were incubated for 2 h in darkness at 37° C. At this point solubilisation was begun through the addition of […] DMSO and the cells maintained at room temperature in darkness for 20 min to ensure thorough colour diffusion before reading the absorbance. Plates were incubated for 72 hours at 37° C.+5% CO2, The MTT (5 mg/mL in PBS) was added and incubated for another 4 h, the optical density was detected with a microplate reader at 570 nm. Results were expressed as percentage viability relative to vehicle control (100%). Dose response curves were plotted and IC50 values (concentration of drug resulting in 50% reduction in cell survival) were obtained using the commercial software package Prism (GraphPad Software, Inc., La Jolla, Calif., USA). All the experiments were repeated in at least three independent experiments.

In data set [2] the test system is HeLa cervical cancer cells. The data set is described as follows: MTT cell viability assay, HeLa. Particulars: Homo sapiens. The class given is cell-based, human. The protocol:
as §1, §2
On the technique in general: Formazan colour is commonly taken as a measure of viable cells.

The subject of a further data set is HL-60 leukemia cells. Nature of the data set: MTT cell viability assay, HL-60. The class given is cell-based, human. Particulars: Homo sapiens. The protocol: as §1, §2
Data set [3] deals with HCT-116 colon cancer cells. Nature of the data set: MTT cell viability assay, HCT-116. It counts as cell-based, human. The note with it: Homo sapiens, HCT-116, MTT. The protocol: as §1, §2
Data set [4] concerns MCF-7, HL-60, HCT-116 and HeLa cancer cells. Nature of the data set: MTT antiproliferative activity over the panel of four cancer cell lines. The class given is cell-based, human. Particulars: for antiproliferative activity (in words): four cancer cell lines, MTT. The protocol:
as §1, §2

[5] abbreviates: HL-60, 72 h, HL-60, MTT, 72 h, mean ± spread of three experiments, read-out: IC50 value (μM) HL-60.

Where “and” joins values, the source holds several entries; their conditions need not be identical. Equal values may be shown once. Read-outs that look alike come from different tables or passages of the source.

These results are taken from US10882852B1, “3-vinylquinolines as cancer cells inhibitors” (King Abdulaziz University, priority 2020, dated 2021).

Take `COc1cc(C2=NC(=Cc3cc4ccccc4nc3OC)C(=O)O2)cc(OC)c1OC` [Compound 8a, 4-[(2-Methoxyquinolin-3-yl)methylene]-2-(3,4,5-trimethoxyphenyl)oxazol-5(4H)-one]: the melting point fell in the range of 215 to 217 °C. In the data set with bovine brain tubulin, the IC50 was 13900 nM and 14000 nM; the “fold less active than CA-4 in tubulin assembly” value was determined as 4 fold.
Compound `COc1cc(C2=NC(=Cc3cc4cc(C)ccc4nc3OC)C(=O)O2)cc(OC)c1OC` [Compound 8b, 4-[(2-Methoxy-6-methylquinolin-3-yl)methylene]-2-(3,4,5-trimethoxyphenyl)oxazol-5(4H)-one] gave a melting point of 218 to 220 °C.
Take `COc1cc(C2=NC(=Cc3cc4cccc(C)c4nc3OC)C(=O)O2)cc(OC)c1OC` [Compound 8d, 4-[(2-Methoxy-8-methylquinolin-3-yl)methylene]-2-(3,4,5-trimethoxyphenyl)oxazol-5(4H)-one]: the melting point lay in the range of 236 to 238 °C.
Compound `COc1ccc2nc(OC)c(/C=C3\N=C(c4cc(OC)c(OC)c(OC)c4)OC3=O)cc2c1` [Compound 8e] returned a melting point of 242 to 244 °C. In the data set with bovine brain tubulin, the IC50 was 2200 nM and 2260 nM. For the same compound, the IC50 in data set [1] (read-out: IC50 in MCF-7 (unit inferred)) came out at 56.8 nM. Also, the IC50 in data set [2] (read-out: IC50 in HeLa (unit inferred)) worked out at 10.1 nM. In the data set on HL-60 leukemia cells (HL-60, HL-60, MTT, read-out: IC50 in HL-60 (unit inferred)), the IC50 was 0.0685 µM. Moreover, the IC50 in data set [3] (read-out: IC50 in HCT-116 (unit inferred)) was 0.0318 µM.
The compound `COc1ccc2cc(C=C3N=C(c4cc(OC)c(OC)c(OC)c4)OC3=O)c(OC)nc2c1` [Compound 8f, 4-[(2,7-Dimethoxyquinolin-3-yl)methylene]-2-(3,4,5-trimethoxyphenyl)oxazol-5(4H)-one] came in with a melting point of 221 to 223 °C.
The compound `COc1cc(C2=NC(=Cc3cc4ccc(OC(C)C)cc4nc3OC)C(=O)O2)cc(OC)c1OC` [Compound 8g, 4-[(7-Isopropoxy-2-methoxyquinolin-3-yl)methylene]-2-(3,4,5-trimethoxyphenyl)oxazol-5(4H)-one] gave a melting point of 227 to 229 °C. Moreover, in the data set on bovine brain tubulin, the IC50 was found to be 8230 nM and the “fold less active than CA-4 in tubulin assembly” value amounted to 6 fold.
With `COc1cc(C2=NC(=Cc3cc4ccc(OCc5ccccc5)cc4nc3OC)C(=O)O2)cc(OC)c1OC` [Compound 8h, 4-[(7-(Benzyloxy)-2-methoxyquinolin-3-yl)methylene]-2-(3,4,5-trimethoxyphenyl)oxazol-5(4H)-one], the melting point is 247 to 249 °C.
`COc1cc(C2=NC(=Cc3cc4ccccc4nc3OC)C(=O)N2)cc(OC)c1OC` [Compound 9a, 5-[(2-Methoxyquinolin-3-yl)methylene]-2-(3,4,5-trimethoxyphenyl)-3,5-dihydro-4H-imidazol-4-one] yielded a melting point of 230 to 232 °C.
In turn, `COc1cc(C2=NC(=Cc3cc4cc(C)ccc4nc3OC)C(=O)N2)cc(OC)c1OC` [Compound 9b, 5-[(2-Methoxy-6-methylquinolin-3-yl)methylene]-2-(3,4,5-trimethoxyphenyl)-3,5-dihydro-4H-imidazol-4-one] showed a melting point of 223 to 225 °C. The “antiproliferative activity (in words)” value in data set [4] is listed as “potent activity in submicromolar range”.
As for `COc1cc(C2=NC(=Cc3cc4ccc(C)cc4nc3OC)C(=O)N2)cc(OC)c1OC` [Compound 9c, 5-[(2-Methoxy-7-methylquinolin-3-yl)methylene]-2-(3,4,5-trimethoxyphenyl)-3,5-dihydro-4H-imidazol-4-one], the melting point is 236 to 238 °C. Besides, in data set [4] (Homo sapiens, panel of HL-60, MCF-7, HCT-116, HeLa, read-out: IC50 values across the four cancer cell lines), the IC50 was 22300 to 73300 nM. The “antiproliferative activity (in words)” value in data set [4] is on record as “potent activity in submicromolar range”. The IC50 with bovine brain tubulin was 20200 nM and 20300 nM. For the same compound, in the data set with bovine brain tubulin (versus oxazolone derivative 8c), the “fold less active than 8c in tubulin polymerization” value turned out to be 16 fold.
For `COc1cc(C2=NC(=Cc3cc4cccc(C)c4nc3OC)C(=O)N2)cc(OC)c1OC` [Compound 9d, 5-[(2-Methoxy-8-methylquinolin-3-yl)methylene]-2-(3,4,5-trimethoxyphenyl)-3,5-dihydro-4H-imidazol-4-one], the melting point lay in the range of 233 to 235 °C. In addition, the “antiproliferative activity (in words)” value in data set [4] is on record as “potent activity in submicromolar range”.
`COc1ccc2nc(OC)c(C=C3N=C(c4cc(OC)c(OC)c(OC)c4)NC3=O)cc2c1` [Compound 9e, 5-[(2,6-Dimethoxyquinolin-3-yl)methylene]-2-(3,4,5-trimethoxyphenyl)-3,5-dihydro-4H-imidazol-4-one] displayed a melting point of 253 to 255 °C. Besides, in the data set with bovine brain tubulin, the 50% inhibitory concentration (IC50) is 1400 nM and 1480 nM. For the same compound, in data set [1] (read-out: IC50 in MCF-7), the IC50 came to 42.9 nM. In data set [2] (read-out: IC50 in HeLa), the IC50 is 62.3 nM. Also, the IC50 with HL-60 leukemia cells (setting [5]) came to 0.272 ± 0.05 µM. In addition, the IC50 in data set [3] (72 h, read-out: IC50 value (μM) HCT-116) was 0.085 ± 0.003 µM.
`COc1ccc2cc(C=C3N=C(c4cc(OC)c(OC)c(OC)c4)NC3=O)c(OC)nc2c1` [Compound 9f, 5-[(2,7-Dimethoxyquinolin-3-yl)methylene]-2-(3,4,5-trimethoxyphenyl)-3,5-dihydro-4H-imidazol-4-one] came in with a melting point of 241 to 243 °C. Besides, the IC50 in data set [1] (read-out: IC50 in MCF-7) was determined as 92.7 nM. The IC50 in data set [2] (read-out: IC50 in HeLa) stood at 101 nM. Besides, the IC50 in data set [3] (read-out: IC50 in HCT-116) is 0.188 µM.
The compound `COc1cc(C2=NC(=Cc3cc4ccc(OC(C)C)cc4nc3OC)C(=O)N2)cc(OC)c1OC` [Compound 9g, 5-((7-Isopropoxy-2-methoxyquinolin-3-yl)methylene)-2-(3,4,5-trimethoxyphenyl)-3,5-dihydro-4H-imidazol-4-one] gave a melting point of 238 to 240 °C.
`COc1cc(C2=NC(=Cc3cc4ccc(OCc5ccccc5)cc4nc3OC)C(=O)N2)cc(OC)c1OC` [Compound 9h, 5-[(7-(Benzyloxy)-2-methoxyquinolin-3-yl)methylene]-2-(3,4,5-trimethoxyphenyl)-3,5-dihydro-4H-imidazol-4-one] displayed a melting point of 259 to 261 °C. In addition, the IC50 in the data set on HL-60 leukemia cells (setting [5]) is 4.93 ± 0.26 µM.

By melting point is commonly meant the temperature, or range, at which the solid turns liquid. A word on the IC50: it is the concentration that gives 50% inhibition.
